# Experimental data reported in paper PMC7359024, “Synthesis, Structure–Activity Relationship, and Mechanistic Studies of Aminoquinazolinones Displaying Antimycobacterial Activity” (ACS Infectious Diseases, 2020).
# pIC50: −log10 of the molar value. Where two headings read alike, the source gives them in different places.
# Experiments:
# [1] = in vitro; conditions: Chinese hamster
# [2] = in vivo; parameters: species or system C57/BL6 mice; conditions: for bioavailability: oral 20 mg/kg vs iv 5 mg/kg
# Protocol: In vivo PK studies were performed on compound 1 (sulfone) and compound 2 (sulfoxide) (Table 3). All studies and procedures were conducted with prior approval of the animal ethics committee of the University of Cape Town (approval numbers 013/028 and 014/028) in accordance with the South African National Standard (SANS 10386:008) for the Care and Use of Animals for Scientific Purposes and guidelines from the Department of Health. […]
# the South African National Standard (SANS 10386:008) for the Care and Use of Animals for Scientific Purposes,6 and guidelines from the Department of Health.7
# The pharmacokinetic parameters of the compounds were determined by dosing the compound to C57/BL6 mice through oral (n = 3 mice) and intravenous (n = 3 mice) administration. For oral administration, the compounds were formulated in 0.5% hydroxypropylmethyl cellulose (HPMC) in Phosphate buffered saline pH 7.4. The intravenous doses were administered in dimethylacetamide-polyethylene glycol 400-polypropylene glycol (DMA-PEG400-PPG) (10:30:60) Blood samples were collected via tail bleeding at predetermined time points and stored at -80°C until liquid chromatography-tandem mass spectrometry (LC-MS/MS) analysis.
# The whole-blood concentrations of the compounds were determined using a quantitative LC- […]
# method, using ice -cold acetonitrile.
# After centrifugation, the supernatant was transferred to 96 -well plates for analysis. LC -MS/MS was carried out on an AB Sciex 400 0 QTrap coupled to an Agilent 1200 high -performance liquid chromatograph (HPLC). Separation was achieved on a Kinetex PFP column column, using 0.1% formic acid in water as the aqueous mobile phase and 0.1% formic acid in acetonitrile as the organic mobile phase. The analytical limit of quantitation (LOQ) was 1 ng/ml. LC-MS/MS method accuracy and precision were 15% (nom) for the standards and […]
# Concentration-versus-time data were used to derive the PK parameters using noncompartmental analys is on PK Solutions 2.0 (Summit Research Services, Montrose, CO,
# [3] = test system: Mtb H37Rv strain; assay: MIC90 determination in GASTE-Fe media (broth microdilution); type: cell-based, Mycobacterium tuberculosis; conditions: Mtb H37Rv, replicating conditions, GASTE-Fe media, read 14 days after incubation, read-out: MIC90 GASTE-Fe
# [4] = physchem; type: physicochemical; conditions: kinetic solubility, pH 7.4, HPLC method
# Protocol: The kinetic solubility assay was performed using a miniaturised shake flask method. 10 mM stock solutions of each of the test compounds were used to prepare calibration standards (10-220μM) in DMSO. The same 10mM stock solutions were accurately dispensed in duplicate into 96-well plates and the DMSO dried down (MiVac GeneVac, 90 min, 37 °C). Thereafter, the samples were reconstituted (200 µM) in phosphate buffered saline (pH 7.4) and shaken (20 hours, 25 °C). The solutions were filtered and analysed by means of HPLC -DAD (Agilent 1200 Rapid Resolution HPLC with a diode array detector). […]
# [5] = type: in vitro ADME; conditions: for Metabolic Stability H (% Rem.): human liver microsomes; for Metabolic Stability M (% Rem.): mouse liver microsomes; for Metabolic Stability R (% Rem.): rat liver microsomes
# Protocol: 3.2. Microsomal stability
# The metabolic stability assay was performed in duplicate in a 96-well micro titre plate. The test compounds (0.1 μM) were incubated individually in mouse, rat and pooled human liver microsomes ((final protein concentration of 0.4 mg/mL; XenoTech, Lenexa, KS ), suspended in 0.1M phosphate buffer (pH 7.4) at 37 °C for predetermined time points, in the presence and absence of the cofactor NADPH (1 mM). Reactions were quenched by adding ice cold acetonitrile containing internal standard (carbamazepine, 0.0236 µg/mL). T he samples were centrifuged and test compound in the supernatant were analysed by means of LC -MS/MS (Agilent Rapid Resolution HPLC, AB SCIEX 4500 MS ). The relative loss of parent compound over time was monitored and plots (concentration vs. time) were prepared per compound to determine the first order rate constant for compound depletion. This was in turn used to calculate half-life, in vitro intrinsic clearance and in vivo hepatic extraction ratio. Metabolite searches were not conducted during the metabolic stability assay. 5
# [6] = Mycobacterium tuberculosis, H37RV, 336 h
Structure (SMILES),pIC50 [1],"MIC90 [3, 6]","solubility ([4]; 25 °C, pH 7.4, aqueous buffer)",Metabolic Stability H (% Rem.) [5],Metabolic Stability M (% Rem.) [5],Metabolic Stability R (% Rem.) [5],also measured
"CS(=O)(=O)c1cccc(-c2ccc3nc(N)n(-c4ccc(C(F)(F)F)cc4)c(=O)c3c2)c1 [compound 1, 2-Amino-6-(3-(methylsulfonyl)phenyl)-3-(4-(trifluoromethyl)phenyl)quinazolin-4(3H)-one]",< 4.00,< 0.244 µM,< 5 µM,97 % Rem.,92 % Rem.,100 % Rem.,"AUC0–∞ ([2]; 1 as metabolite of 2, mouse, oral 20 mg/kg of compound 2): 18430 min·μmol·L^–1; Vd ([2]; C57/BL6, in vivo, mouse, iv 5 mg/kg): 0.81 L/kg; clearance ([2]; C57/BL6, in vivo, mouse, iv 5 mg/kg, read-out: CLtotal): 0.078 L/h/kg; half-life ([2]; C57/BL6, in vivo, mouse, iv 5 mg/kg, read-out: apparent t1/2 (converted)): 7.3 h; Tmax ([2]; C57/BL6, in vivo, mouse, oral 20 mg/kg): 3 h; Cmax ([2]; C57/BL6, in vivo, mouse, oral 20 mg/kg, whole blood): 5.98 µM; bioavailability ([2]; C57/BL6, mouse, in vivo, read-out: bioavailability): 18%; AUC0–∞ ([2]; mouse, iv 5 mg/kg): 8589 min·μmol·L^–1; AUC0–∞ ([2]; mouse, oral 20 mg/kg): 7249 min·μmol·L^–1; bioavailability ([2]; mouse): 18.4%; MIC90 [3]: <0.244 µM"
CN(C)CCNC(=O)c1cccc(-c2ccc3nc(N)n(-c4ccc(C(F)(F)F)cc4)c(=O)c3c2)c1 [compound 13],< 4.30,0.82 µM,168 µM,82 % Rem.,56 % Rem.,40 % Rem.,–
Nc1nc2ccc(-c3cccc(C(=O)NCCO)c3)cc2c(=O)n1-c1ccc(C(F)(F)F)cc1 [compound 14],< 4.30,1.03 µM,192 µM,81 % Rem.,90 % Rem.,83 % Rem.,solubility [4]: 193 µM
"Nc1nc2ccc(-c3cccc(C(=O)NCCN4CCOCC4)c3)cc2c(=O)n1-c1ccc(C(F)(F)F)cc1 [compound 15, 3-(2-amino-4-oxo-3-(4-(trifluoromethyl)phenyl)-3,4-dihydroquinazolin-6-yl)-N-(2-morpholinoethyl)benzamide]",5.06,1.45 µM,< 5 µM,51 % Rem.,59 % Rem.,62 % Rem.,–
"Nc1nc2ccc(-c3cccc(C(=O)N4CCOCC4)c3)cc2c(=O)n1-c1ccc(C(F)(F)F)cc1 [compound 16, 2-Amino-6-(3-(morpholine-4-carbonyl)phenyl)-3-(4-(trifluoromethyl)phenyl)quinazolin-4(3H)-one]",< 4.30,4.93 µM,56 µM,71 % Rem.,78 % Rem.,77 % Rem.,–
"Nc1nc2ccc(-c3cccc(C(=O)N4CCSCC4)c3)cc2c(=O)n1-c1ccc(C(F)(F)F)cc1 [compound 18, 2-Amino-6-(3-(thiomorpholine-4-carbonyl)phenyl)-3-(4-(trifluoromethyl)phenyl)quinazolin-4(3H)-one]",< 4.30,0.656 µM,46 µM,8 % Rem.,22 % Rem.,23 % Rem.,–
CN1CCN(C(=O)c2cccc(-c3ccc4nc(N)n(-c5ccc(C(F)(F)F)cc5)c(=O)c4c3)c2)CC1 [compound 19],< 4.30,1.57 µM,51 µM,97 % Rem.,94 % Rem.,86 % Rem.,–
Nc1nc2ccc(-c3cccc(C(=O)O)c3)cc2c(=O)n1-c1ccc(C(F)(F)F)cc1 [compound 20],< 4.00,112 µM,29 µM,99 % Rem.,98 % Rem.,97 % Rem.,–
Nc1nc2ccc(-c3cncnc3)cc2c(=O)n1-c1ccc(C(F)(F)F)cc1 [compound 21],< 4.00,10 µM,40 µM,94/-/- % Rem.,–,–,–
Nc1nc2ccc(-c3cccnc3)cc2c(=O)n1-c1ccc(C(F)(F)F)cc1 [compound 22],< 4.00,0.625 µM,20 µM,68/-/- % Rem.,–,–,–
Cc1cncc(-c2ccc3nc(N)n(-c4ccc(C(F)(F)F)cc4)c(=O)c3c2)c1 [compound 23],< 4.00,> 2 µM,< 5 µM,87/-/- % Rem.,–,–,MIC90 [3]: 2.5 µM
CN(C)c1cccc(-c2ccc3nc(N)n(-c4ccc(C(F)(F)F)cc4)c(=O)c3c2)c1 [compound 27],< 4.00,2.5 µM,20 µM,37/-/- % Rem.,–,–,–
Nc1nc2ccc(-c3cccc(C(F)(F)F)c3)cc2c(=O)n1-c1ccc(C(F)(F)F)cc1 [compound 28],< 4.00,0.75 µM,40 µM,88/-/- % Rem.,–,–,–
CS(=O)(=O)c1cccc(-c2ccc3c(=O)n(-c4ccc(C(F)(F)F)cc4)c(N)nc3c2)c1 [compound 30],< 4.30,1.39 µM,< 5 µM,99/99/99 % Rem.,99/99/99 % Rem.,99/99/99 % Rem.,–
C[S+]([O-])c1cccc(-c2ccc3c(=O)n(-c4ccc(C(F)(F)F)cc4)c(N)nc3c2)c1 (stereo not shown) [compound 31],< 4.30,1.32 µM,< 5 µM,98 % Rem.,78 % Rem.,73 % Rem.,–
Nc1nc2cc(-c3cccc(C(F)(F)F)c3)ccc2c(=O)n1-c1ccc(C(F)(F)F)cc1 [compound 32],< 4.30,0.8 µM,< 5 µM,95 % Rem.,82 % Rem.,89 % Rem.,–
"CNc1nc2ccc(-c3cccc([S+](C)[O-])c3)cc2c(=O)n1-c1ccc(C(F)(F)F)cc1 (stereo not shown) [compound 40, 2-(Methylamino)-6-(3-(methylsulfinyl)phenyl)-3-(4-(trifluoromethyl)phenyl)quinazolin-4(3H)-one]",< 4.30,1.4 µM,64 µM,89 % Rem.,87 % Rem.,90 % Rem.,–
"CNc1nc2ccc(-c3cccc(S(C)(=O)=O)c3)cc2c(=O)n1-c1ccc(C(F)(F)F)cc1 [compound 41, 2-(Methylamino)-6-(3-(methylsulfonyl)phenyl)-3-(4-(trifluoromethyl)phenyl)quinazolin-4(3H)-one]",< 4.30,> 125 µM,< 5 µM,98 % Rem.,100 % Rem.,100 % Rem.,MIC90 [3]: >125 µM
